Laboratory results from patent US11623919B2, “Heterocyclic P2X7 antagonists” (AXXAM S.P.A., priority 2017, dated 2023).

Key:
Experiment in all cases: Screen Quest Fluo-8 No Wash Calcium Assay (Bz-ATP evoked Ca2+ influx, FLIPR)
Type in all cases: cell-based
P2X7 receptor [1] = target: T1, P2X7 receptor (Mus musculus, UniProt Q9Z1M0); details: mP2X7; HEK-293 cells stably transfected with P2X7 receptor, Bz-ATP at EC80, Fluo-8 NW; potency ranges A-D
T1 construct: mP2X7 (IC50; nM); other: mP2X7; HEK-293 cells stably transfected with P2X7 receptor, Bz-ATP at EC80, Fluo-8 NW; potency
T1 sequence (Q9Z1M0 1-595): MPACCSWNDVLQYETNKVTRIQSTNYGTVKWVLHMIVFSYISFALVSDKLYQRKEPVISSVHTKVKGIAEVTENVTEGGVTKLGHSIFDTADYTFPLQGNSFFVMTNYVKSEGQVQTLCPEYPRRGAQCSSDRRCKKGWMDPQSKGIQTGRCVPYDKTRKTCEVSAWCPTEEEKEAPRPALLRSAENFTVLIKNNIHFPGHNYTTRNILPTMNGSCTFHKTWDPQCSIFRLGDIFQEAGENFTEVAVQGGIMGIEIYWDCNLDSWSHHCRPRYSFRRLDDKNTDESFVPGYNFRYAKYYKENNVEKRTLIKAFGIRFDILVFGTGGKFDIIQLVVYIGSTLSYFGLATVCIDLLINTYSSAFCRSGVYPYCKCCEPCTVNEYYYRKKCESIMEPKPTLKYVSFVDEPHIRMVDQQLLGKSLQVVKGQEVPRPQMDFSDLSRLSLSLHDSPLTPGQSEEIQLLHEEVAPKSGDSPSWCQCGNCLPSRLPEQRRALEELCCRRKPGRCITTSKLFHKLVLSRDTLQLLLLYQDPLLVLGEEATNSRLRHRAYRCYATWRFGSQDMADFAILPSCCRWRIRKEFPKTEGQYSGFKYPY
Summary of the method: (§1)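 HEK-293 cells stably expressing P2X7 were loaded with Fluo-8 NW for 1 h at RT, then given compound, and 5 min later Bz-ATP at EC80. Fluorescence was read by FLIPR in low divalent cation buffer (0.3 mM Ca2+, 0 mM Mg2+). IC50 came from percent inhibition relative to reference antagonist A438079.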

P2X7 receptor [2] = target: T2, P2X7 receptor (Rattus norvegicus, UniProt Q64663); details: rP2X7; HEK-293 cells stably transfected with P2X7 receptor, Bz-ATP at EC80, Fluo-8 NW; potency ranges A-D
T2 construct: rP2X7 (IC50; nM); other: rP2X7; HEK-293 cells stably transfected with P2X7 receptor, Bz-ATP at EC80, Fluo-8 NW; potency
T2 sequence (Q64663 1-595): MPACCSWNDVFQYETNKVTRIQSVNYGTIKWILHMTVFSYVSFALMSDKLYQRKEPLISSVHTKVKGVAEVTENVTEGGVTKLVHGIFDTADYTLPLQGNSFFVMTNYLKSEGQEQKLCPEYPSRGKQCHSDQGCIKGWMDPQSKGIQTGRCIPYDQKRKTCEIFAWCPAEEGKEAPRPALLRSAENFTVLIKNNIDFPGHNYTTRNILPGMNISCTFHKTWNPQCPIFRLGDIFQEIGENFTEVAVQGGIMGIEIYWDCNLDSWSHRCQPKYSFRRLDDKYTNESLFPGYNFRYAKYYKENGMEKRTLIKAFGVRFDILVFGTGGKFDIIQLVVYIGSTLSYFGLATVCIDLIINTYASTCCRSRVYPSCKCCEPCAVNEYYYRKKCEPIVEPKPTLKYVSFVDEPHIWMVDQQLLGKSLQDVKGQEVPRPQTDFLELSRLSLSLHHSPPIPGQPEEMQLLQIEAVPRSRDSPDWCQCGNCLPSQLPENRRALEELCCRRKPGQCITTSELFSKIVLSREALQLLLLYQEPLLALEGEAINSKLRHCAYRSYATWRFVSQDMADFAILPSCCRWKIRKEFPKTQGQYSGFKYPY
Summary of the method: as §1

P2X7 receptor [3] = target: T3, P2X7 receptor (Homo sapiens, UniProt Q99572); set-up: hP2X7 (IC50; nM); other: hP2X7; HEK-293 cells stably transfected with P2X7 receptor, Bz-ATP at EC80, Fluo-8 NW; potency; details: hP2X7; HEK-293 cells stably transfected with P2X7 receptor, Bz-ATP at EC80, Fluo-8 NW; potency ranges A-D
T3 sequence (Q99572 1-595): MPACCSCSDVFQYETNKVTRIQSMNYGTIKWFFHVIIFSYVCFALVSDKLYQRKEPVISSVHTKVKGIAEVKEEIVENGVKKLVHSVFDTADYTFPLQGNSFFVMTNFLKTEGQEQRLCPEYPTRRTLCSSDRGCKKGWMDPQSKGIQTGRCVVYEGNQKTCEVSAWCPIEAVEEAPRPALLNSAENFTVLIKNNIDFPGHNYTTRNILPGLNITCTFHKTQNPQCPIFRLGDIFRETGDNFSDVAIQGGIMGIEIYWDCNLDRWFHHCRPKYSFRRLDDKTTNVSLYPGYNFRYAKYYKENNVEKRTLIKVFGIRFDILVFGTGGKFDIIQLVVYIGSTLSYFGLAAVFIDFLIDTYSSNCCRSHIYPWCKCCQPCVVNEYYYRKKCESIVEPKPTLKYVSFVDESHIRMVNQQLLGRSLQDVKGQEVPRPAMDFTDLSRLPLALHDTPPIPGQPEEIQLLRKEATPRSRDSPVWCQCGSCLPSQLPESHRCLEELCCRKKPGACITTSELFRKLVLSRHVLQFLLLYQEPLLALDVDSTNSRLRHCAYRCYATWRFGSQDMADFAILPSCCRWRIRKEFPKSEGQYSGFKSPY
Summary of the method: as §1

O=c1onc(Cc2c(F)cccc2Cl)n1Cc1ccccn1 [Example 62, 3-[(2-chloro-6-fluorophenyl)methyl]-4-(pyridin-2-ylmethyl)-4,5-dihydro-1,2,4-oxadiazol-5-one]
IC50 (P2X7 receptor [1]): > 10000 nM | IC50 (P2X7 receptor [2]): > 10000 nM | IC50 (P2X7 receptor [3]): > 10000 nM

O=c1onc(CC2CCC(F)(F)CC2)n1Cc1ncc(F)cn1 [Example 190, 3-[(4,4-difluorocyclohexyl)methyl]-4-[(5-fluoropyrimidin-2-yl)methyl]-4,5-dihydro-1,2,4-oxadiazol-5-one]
IC50 (P2X7 receptor [1]): > 10000 nM | IC50 (P2X7 receptor [2]): > 10000 nM | IC50 (P2X7 receptor [3]): > 10000 nM

CC(c1c(F)cccc1Cl)c1noc(=O)n1Cc1ccc(F)cc1 (stereo not drawn) [Example 78, 3-[1-(2-chloro-6-fluorophenyl)ethyl]-4-[(4-fluorophenyl)methyl]-4,5-dihydro-1,2,4-oxadiazol-5-one]
IC50 (P2X7 receptor [1]): > 10000 nM | IC50 (P2X7 receptor [2]): > 10000 nM | IC50 (P2X7 receptor [3]): > 10000 nM

O=c1onc(CCc2c(F)cccc2Cl)n1Cc1c(F)cccc1Cl [Example 144, 4-(2-chloro-6-fluorobenzyl)-3-[2-(2-chloro-6-fluorophenyl)ethyl]-1,2,4-oxadiazol-5(4H)-one]
IC50 (P2X7 receptor [1]): 1000 to 10000 nM | IC50 (P2X7 receptor [2]): 200 to 1000 nM | IC50 (P2X7 receptor [3]): 200 to 1000 nM

O=c1onc(Cc2c(F)cccc2Cl)n1Cc1ccccc1 [Example 21, 4-benzyl-3-[(2-chloro-6-fluorophenyl)methyl]-4,5-dihydro-1,2,4-oxadiazol-5-one]
IC50 (P2X7 receptor [1]): 1000 to 10000 nM | IC50 (P2X7 receptor [2]): 1000 to 10000 nM | IC50 (P2X7 receptor [3]): 200 to 1000 nM

O=c1onc(Cc2ccc(F)cc2F)n1Cc1ccc(F)cc1 [Example 80, 3-[(2,4-difluorophenyl)methyl]-4-[(4-fluorophenyl)methyl]-4,5-dihydro-1,2,4-oxadiazol-5-one]
IC50 (P2X7 receptor [1]): > 10000 nM | IC50 (P2X7 receptor [2]): 1000 to 10000 nM | IC50 (P2X7 receptor [3]): 1000 to 10000 nM

O=c1onc(CN2CCc3ccccc3C2)n1Cc1c(F)cccc1Cl [Example 244, 4-[(2-chloro-6-fluorophenyl)methyl]-3-(1,2,3,4-tetrahydroisoquinolin-2-ylmethyl)-4,5-dihydro-1,2,4-oxadiazol-5-one]
IC50 (P2X7 receptor [1]): 200 to 1000 nM | IC50 (P2X7 receptor [2]): 200 to 1000 nM | IC50 (P2X7 receptor [3]): 1000 to 10000 nM

O=c1onc(Cc2c(F)cccc2Cl)n1CCN1CCCCC1 [Example 143, 3-(2-chloro-6-fluorobenzyl)-4-[2-(piperidin-1-yl)ethyl]-1,2,4-oxadiazol-5(4H)-one]
IC50 (P2X7 receptor [1]): 1000 to 10000 nM | IC50 (P2X7 receptor [2]): 200 to 1000 nM | IC50 (P2X7 receptor [3]): 200 to 1000 nM

O=c1onc(Cc2ccc(F)cc2)n1CC1CCCCC1 [Example 12, 4-(cyclohexylmethyl)-3-[(4-fluorophenyl)methyl]-4,5-dihydro-1,2,4-oxadiazol-5-one]
IC50 (P2X7 receptor [1]): 200 to 1000 nM | IC50 (P2X7 receptor [2]): 200 to 1000 nM | IC50 (P2X7 receptor [3]): 1000 to 10000 nM

O=c1onc(Cc2ccc(F)cc2F)n1Cc1c(F)cccc1Cl [Example 15, 4-[(2-chloro-6-fluorophenyl)methyl]-3-[(2,4-difluorophenyl)methyl]-4,5-dihydro-1,2,4-oxadiazol-5-one]
IC50 (P2X7 receptor [1]): 1000 to 10000 nM | IC50 (P2X7 receptor [2]): 1000 to 10000 nM | IC50 (P2X7 receptor [3]): 1000 to 10000 nM

O=c1onc(Cc2cccc(Cl)c2Cl)n1CC1CCC(F)(F)CC1 [Example 156, 3-[(2,3-dichlorophenyl)methyl]-4-[(4,4-difluorocyclohexyl)methyl]-4,5-dihydro-1,2,4-oxadiazol-5-one]
IC50 (P2X7 receptor [1]): 200 to 1000 nM | IC50 (P2X7 receptor [2]): < 200 nM | IC50 (P2X7 receptor [3]): < 200 nM

O=c1onc(CC2CCC(F)(F)C2)n1Cc1ccc(F)cc1 (stereo not drawn) [Example 204, 3-[(3,3-difluorocyclopentyl)methyl]-4-[(4-fluorophenyl)methyl]-4,5-dihydro-1,2,4-oxadiazol-5-one]
IC50 (P2X7 receptor [1]): > 10000 nM | IC50 (P2X7 receptor [2]): > 10000 nM | IC50 (P2X7 receptor [3]): > 10000 nM

Cc1nc(C(F)(F)F)ccc1Cn1c(CC2CCC(F)(F)CC2)noc1=O [Example 192, 3-[(4,4-difluorocyclohexyl)methyl]-4-{[2-methyl-6-(trifluoromethyl)-pyridin-3-yl]methyl}-4,5-dihydro-1,2,4-oxadiazol-5-one]
IC50 (P2X7 receptor [1]): > 10000 nM | IC50 (P2X7 receptor [2]): > 10000 nM | IC50 (P2X7 receptor [3]): > 10000 nM

O=c1onc(Cc2cccc(F)c2)n1CC1CCCCC1 [Example 125, 4-(cyclohexylmethyl)-3-[(3-fluorophenyl)methyl]-4,5-dihydro-1,2,4-oxadiazol-5-one]
IC50 (P2X7 receptor [1]): 1000 to 10000 nM | IC50 (P2X7 receptor [2]): 200 to 1000 nM | IC50 (P2X7 receptor [3]): 1000 to 10000 nM

Cc1nn(C)c(C)c1Cc1noc(=O)n1Cc1ccc(F)cc1 [Example 212, 4-[(4-fluorophenyl)methyl]-3-[(trimethyl-1H-pyrazol-4-yl)methyl]-4,5-dihydro-1,2,4-oxadiazol-5-one]
IC50 (P2X7 receptor [1]): > 10000 nM | IC50 (P2X7 receptor [2]): > 10000 nM | IC50 (P2X7 receptor [3]): 1000 to 10000 nM

O=c1onc(CC2CCC(F)(F)CC2)n1Cc1ncco1 [Example 194, 3-[(4,4-difluorocyclohexyl)methyl]-4-[(1,3-oxazol-2-yl)methyl]-1,2,4-oxadiazol-5(4H)-one]
IC50 (P2X7 receptor [1]): > 10000 nM | IC50 (P2X7 receptor [2]): 1000 to 10000 nM | IC50 (P2X7 receptor [3]): 1000 to 10000 nM

O=c1onc(Cc2c(F)cccc2Cl)n1Cc1cncnc1 [Example 38, 3-[(2-chloro-6-fluorophenyl)methyl]-4-(pyrimidin-5-ylmethyl)-4,5-dihydro-1,2,4-oxadiazol-5-one]
IC50 (P2X7 receptor [1]): > 10000 nM | IC50 (P2X7 receptor [2]): > 10000 nM | IC50 (P2X7 receptor [3]): > 10000 nM

COc1ccccc1Cn1c(Cc2c(F)cccc2Cl)noc1=O [Example 28, 3-[(2-chloro-6-fluorophenyl)methyl]-4-[(2-methoxyphenyl)methyl]-4,5-dihydro-1,2,4-oxadiazol-5-one]
IC50 (P2X7 receptor [1]): 1000 to 10000 nM | IC50 (P2X7 receptor [2]): > 10000 nM | IC50 (P2X7 receptor [3]): 1000 to 10000 nM

O=c1onc(CC2CCC(F)(F)CC2)n1Cc1ccno1 [Example 199, 3-[(4,4-difluorocyclohexyl)methyl]-4-[(1,2-oxazol-5-yl)methyl]-1,2,4-oxadiazol-5(4H)-one]
IC50 (P2X7 receptor [1]): 1000 to 10000 nM | IC50 (P2X7 receptor [2]): 1000 to 10000 nM | IC50 (P2X7 receptor [3]): > 10000 nM

CC(c1ccc(F)cc1)n1c(CC2CCCCC2)noc1=O (stereo not drawn) [Example 163, 3-(cyclohexylmethyl)-4-[1-(4-fluorophenyl)ethyl]-4,5-dihydro-1,2,4-oxadiazol-5-one]
IC50 (P2X7 receptor [1]): 1000 to 10000 nM | IC50 (P2X7 receptor [2]): 1000 to 10000 nM | IC50 (P2X7 receptor [3]): 1000 to 10000 nM

O=c1onc(Cc2ccc(F)cc2Cl)n1Cc1c(F)cccc1Cl [Example 14, 3-[(2-chloro-4-fluorophenyl)methyl]-4-[(2-chloro-6-fluorophenyl)methyl]-4,5-dihydro-1,2,4-oxadiazol-5-one]
IC50 (P2X7 receptor [1]): 1000 to 10000 nM | IC50 (P2X7 receptor [2]): 1000 to 10000 nM | IC50 (P2X7 receptor [3]): 200 to 1000 nM
